One assay addresses T1, full-length human PHD1 (Homo sapiens, UniProt Q96KS0).
T1 construct: FLAG (N); purchased Active Motif 81064; host or cells: baculovirus expression system
Description: TR-FRET assay, enzymatic IC50 against PHD1. Also: 15 nM PHD1. Type of assay: biochemical. From the text:
PHD1 was expressed in a baculovirus expression system as the full-length protein (NCBI accession number NP_542770.2) with an N-terminal FLAG tag (molecular weight 44.9 kDa).
A general note: In TR-FRET formats the signal depends on donor and acceptor labels being close together.

The target of the next assay is full-length human PHD2 (Homo sapiens, UniProt Q9GZT9). Kind of assay: TR-FRET assay, enzymatic IC50 against PHD2.

Usually IC50 stands for the midpoint of a concentration-inhibition curve. A higher IC50 goes with lower potency.

Counter-ions that a name gives are not always drawn.

full-length human PHD2, sequence (Q9GZT9 whole entry): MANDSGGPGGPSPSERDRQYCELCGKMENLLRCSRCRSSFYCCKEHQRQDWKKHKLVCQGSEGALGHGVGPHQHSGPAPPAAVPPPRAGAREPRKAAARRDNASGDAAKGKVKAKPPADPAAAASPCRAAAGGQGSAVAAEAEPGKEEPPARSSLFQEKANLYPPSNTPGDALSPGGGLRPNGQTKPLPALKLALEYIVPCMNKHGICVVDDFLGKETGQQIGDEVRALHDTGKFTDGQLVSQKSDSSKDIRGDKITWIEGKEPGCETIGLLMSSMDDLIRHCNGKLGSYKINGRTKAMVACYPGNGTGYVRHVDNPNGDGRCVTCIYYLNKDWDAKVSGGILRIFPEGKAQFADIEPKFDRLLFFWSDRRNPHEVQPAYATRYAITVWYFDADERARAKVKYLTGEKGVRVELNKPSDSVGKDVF
T1 sequence (Q96KS0 whole entry): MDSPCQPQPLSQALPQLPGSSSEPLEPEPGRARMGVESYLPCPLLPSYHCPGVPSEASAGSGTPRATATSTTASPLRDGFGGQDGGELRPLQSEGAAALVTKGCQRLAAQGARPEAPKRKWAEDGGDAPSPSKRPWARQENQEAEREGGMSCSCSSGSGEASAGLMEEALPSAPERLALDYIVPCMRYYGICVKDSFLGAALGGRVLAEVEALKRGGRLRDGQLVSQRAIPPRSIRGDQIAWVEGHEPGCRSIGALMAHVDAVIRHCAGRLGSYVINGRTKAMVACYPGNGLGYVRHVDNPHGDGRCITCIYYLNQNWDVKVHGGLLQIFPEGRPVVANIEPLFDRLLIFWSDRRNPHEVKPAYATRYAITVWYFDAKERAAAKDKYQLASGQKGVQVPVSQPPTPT
Description for full-length human PHD2: Time-resolved fluorescence resonance energy transfer (TR-FRET) assay was utilized to determine the enzymatic half maximal inhibitory concentration (IC50) value of PHD inhibitors against the full-length human prolyl-4-hydroxylase domain (PHD) enzymes, PHD1, PHD2, and PHD3. The TR-FRET assay was developed based on the specific binding of hydroxylated HIF-1α peptide with the complex formed by VHL, EloB and EloC (VBC), to generate a fluorescent signal. Terbium (Tb)-Donor (monoclonal antibody anti-6His-Tb-cryptate Gold) and D2-acceptor (streptavidin [SA]-D2) of TR-FRET are linked to the VBC complex and to HIF-1α peptide, respectively. The VBC complex binds specifically to the HIF-1α peptide when it is hydroxylated, allowing energy transfer from TR-FRET donor to acceptor (FIG. 1). […] The plates were incubated for 30 minutes at room temperature without rotation. […] TR-FRET assays were performed in triplicate at each concentration of compound and the assays were repeated independently three times.

Regarding `Cc1nn(-c2ccc(S(=N)(=O)N(C)C)cn2)c(O)c1-c1ccc(C#N)cc1` (centres unmarked) [Compound 25, 6-(4-(4-cyanophenyl)-5-hydroxy-3-methyl-1H-pyrazol-1-yl)-N,N-dimethylpyridine-3-sulfonimidamide], the IC50 at full-length human PHD1 and at full-length human PHD2 was under 100 nM in each case.

As to `CNS(=N)(=O)c1ccc(-n2nc(C)c(-c3ccc(C#N)cc3)c2O)nc1` (centres unmarked) [Compound 26, 6-(4-(4-cyanophenyl)-5-hydroxy-3-methyl-1H-pyrazol-1-yl)-N-methylpyridine-3-sulfonimidamide], the IC50 at full-length human PHD1 and on full-length human PHD2 was under 100 nM throughout.

In the case of `Cc1nn(-c2ccc(C(=O)NS(C)(=O)=O)cn2)c(O)c1-c1ccc(Cl)cc1` [Compound 28, 6-(4-(4-chlorophenyl)-5-hydroxy-3-methyl-1H-pyrazol-1-yl)-N-(methylsulfonyl)nicotinamide], the IC50 against full-length human PHD1 is under 100 nM; on full-length human PHD2 it was 100 to 1000 nM.

In the case of `CC(=O)NS(=O)(=O)c1ccc(-n2nc(C)c(-c3ccc(C#N)cc3)c2O)nc1` [Compound 29, N-((6-(4-(4-cyanophenyl)-5-hydroxy-3-methyl-1H-pyrazol-1-yl)pyridin-3-yl)sulfonyl)acetamide], the IC50 on full-length human PHD1 and against full-length human PHD2 was under 100 nM in each case.

For the molecule `CC(=O)NS(=O)(=O)c1ccc(-n2nc(C)c(-c3ccc(Cl)cc3)c2O)nc1` [Compound 30, N-((6-(4-(4-chlorophenyl)-5-hydroxy-3-methyl-1H-pyrazol-1-yl)pyridin-3-yl)sulfonyl)acetamide], the IC50 on full-length human PHD1 and on full-length human PHD2 was under 100 nM throughout.

With `Cc1nn(-c2ccc(NC(=O)N3CCOCC3)cn2)c(O)c1-c1ccc(C#N)cc1` [Compound 31, N-(6-(4-(4-cyanophenyl)-5-hydroxy-3-methyl-1H-pyrazol-1-yl)pyridin-3-yl)morpholine-4-carboxamide], the IC50 on full-length human PHD1 was under 100 nM; on full-length human PHD2, 100 to 1000 nM.

`Cc1nn(-c2ccc(NC(=O)N3CCNCC3)cn2)c(O)c1-c1ccc(C#N)cc1` [Compound 32, N-(6-(4-(4-cyanophenyl)-5-hydroxy-3-methyl-1H-pyrazol-1-yl)pyridin-3-yl)piperazine-1-carboxamide hydrochloride]: the IC50 on full-length human PHD1 and at full-length human PHD2 was 100 to 1000 nM each time.

On to `Cc1nn(-c2ccc(S(=N)(=O)C3CC3)cn2)c(O)c1-c1ccc(C#N)cc1` (centres unmarked) [Compound 33, 4-(1-(5-(cyclopropanesulfonimidoyl)pyridin-2-yl)-5-hydroxy-3-methyl-1H-pyrazol-4-yl)benzonitrile], for which the IC50 against full-length human PHD1 and against full-length human PHD2 was under 100 nM in each case.

On to `Cc1cc(-n2nc(C)c(-c3ccc(C#N)cc3)c2O)ncc1N1CCCC1=O` [Compound 37, 4-(5-hydroxy-3-methyl-1-(4-methyl-5-(2-oxopyrrolidin-1-yl)pyridin-2-yl)-1H-pyrazol-4-yl)benzonitrile], for which the IC50 on full-length human PHD1 and at full-length human PHD2 was under 100 nM throughout.

Turning to `Cc1cc(-n2nc(C)c(-c3ccc(C#N)cc3)c2O)ncc1S(N)(=O)=O` [Compound 38, 6-(4-(4-cyanophenyl)-5-hydroxy-3-methyl-1H-pyrazol-1-yl)-4-methylpyridine-3-sulfonamide], the IC50 against full-length human PHD1 and on full-length human PHD2 was under 100 nM in each case.

Regarding `Cc1cc(-n2nc(C)c(-c3ccc(C#N)cc3)c2O)ncc1NS(C)(=O)=O` [Compound 39, N-(6-(4-(4-cyanophenyl)-5-hydroxy-3-methyl-1H-pyrazol-1-yl)-4-methylpyridin-3-yl)methanesulfonamide], the IC50 against full-length human PHD1 and against full-length human PHD2 was under 100 nM throughout.

In the case of `Cc1cc(-n2nc(C)c(-c3ccc(C#N)cc3)c2O)ncc1S(C)(=N)=O` (centres unmarked) [Compound 40, 4-(5-hydroxy-3-methyl-1-(4-methyl-5-(S-methylsulfonimidoyl)pyridin-2-yl)-1H-pyrazol-4-yl)benzonitrile], the IC50 at full-length human PHD1 and at full-length human PHD2 was under 100 nM in each case.

Turning to `Cc1nn(-c2ccc([S@@](=N)(=O)C(C)C)cn2)c(O)c1-c1ccc(C#N)cc1` [Compound 41, (S)-4-(5-hydroxy-3-methyl-1-(5-(S-isopropylsulfonimidoyl)pyridin-2-yl)-1H-pyrazol-4-yl)benzonitrile], the IC50 against full-length human PHD1 and against full-length human PHD2 was under 100 nM in each case.

As to `Cc1nn(-c2ccc([S@](=N)(=O)C(C)C)cn2)c(O)c1-c1ccc(C#N)cc1` [Compound 42, (R)-4-(5-hydroxy-3-methyl-1-(5-(S-isopropylsulfonimidoyl)pyridin-2-yl)-1H-pyrazol-4-yl)benzonitrile], the IC50 against full-length human PHD1 and against full-length human PHD2 was under 100 nM throughout.

Take `Cc1nn(-c2ccc(C3CN(S(C)(=O)=O)C3)cn2)c(O)c1-c1ccc(C#N)cc1` [Compound 43, 4-(5-hydroxy-3-methyl-1-(5-(1-(methylsulfonyl)azetidin-3-yl)pyridin-2-yl)-1H-pyrazol-4-yl)benzonitrile]: the half-maximal inhibitory concentration (IC50) against full-length human PHD1 and on full-length human PHD2 was under 100 nM throughout.

As for `Cc1nc(-n2nc(C)c(-c3ccc(C#N)cc3)c2O)ccc1S(C)(=O)=O` [Compound 45, 4-(5-hydroxy-3-methyl-1-(6-methyl-5-(methylsulfonyl)pyridin-2-yl)-1H-pyrazol-4-yl)benzonitrile], the concentration for half-maximal inhibition (IC50) on full-length human PHD1 and at full-length human PHD2 was 1000 to 10000 nM each time.

Turning to `Cc1cc(-n2nc(C)c(-c3ccc(C#N)cc3)c2O)ncc1S(C)(=O)=O` [Compound 46, 4-(5-hydroxy-3-methyl-1-(4-methyl-5-(methylsulfonyl)pyridin-2-yl)-1H-pyrazol-4-yl)benzonitrile], the IC50 at full-length human PHD1 and against full-length human PHD2 was under 100 nM in each case.

`Cc1nn(-c2ccc(CC(=O)O)cn2)c(O)c1-c1ccc(C#N)cc1` [Compound 47, 2-(6-(4-(4-cyanophenyl)-5-hydroxy-3-methyl-1H-pyrazol-1-yl)pyridin-3-yl)acetic acid]: the IC50 against full-length human PHD1 and at full-length human PHD2 was under 100 nM in each case.

`Cc1cc(-c2c(C)nn(-c3ccc(S(C)(=O)=O)cn3)c2O)ccc1O` [Compound 48, 4-(4-hydroxy-3-methylphenyl)-3-methyl-1-(5-(methylsulfonyl)pyridin-2-yl)-1H-pyrazol-5-ol]: the IC50 against full-length human PHD1 and at full-length human PHD2 was 100 to 1000 nM each time.

Take `COc1ccc(-c2c(C)nn(-c3ccc(S(C)(=O)=O)cn3)c2O)cc1C` [Compound 49, 4-(4-methoxy-3-methylphenyl)-3-methyl-1-(5-(methylsulfonyl)pyridin-2-yl)-1H-pyrazol-5-ol]: the IC50 against full-length human PHD1 and against full-length human PHD2 was 100 to 1000 nM in each case.

Regarding `Cc1nn(-c2ccc(-c3nn[nH]n3)cn2)c(O)c1-c1ccc(C#N)cc1` [Compound 50, 4-(1-(5-(2H-tetrazol-5-yl)pyridin-2-yl)-5-hydroxy-3-methyl-1H-pyrazol-4-yl)benzonitrile], the IC50 against full-length human PHD1 and at full-length human PHD2 was under 100 nM each time.

Consider `CNS(=O)(=O)Nc1ccc(-n2nc(C)c(-c3ccc(C#N)cc3)c2O)nc1` [Compound 51, N-(6-(4-(4-cyanophenyl)-5-hydroxy-3-methyl-1H-pyrazol-1-yl)pyridin-3-yl)-N′-methylsulfamide], for which the IC50 on full-length human PHD1 and against full-length human PHD2 was under 100 nM each time.

Consider `Cc1nn(-c2ccc(NS(=O)(=O)N(C)C)cn2)c(O)c1-c1ccc(C#N)cc1` [Compound 52, N-(6-(4-(4-cyanophenyl)-5-hydroxy-3-methyl-1H-pyrazol-1-yl)pyridin-3-yl)-N′-dimethylsulfamide], for which the IC50 at full-length human PHD1 and on full-length human PHD2 was under 100 nM throughout.

On to `Cc1nn(-c2cc(C3CC3)c(S(C)(=O)=O)cn2)c(O)c1-c1ccc(C#N)cc1` [Compound 53, 4-(1-(4-cyclopropyl-5-(methylsulfonyl)pyridin-2-yl)-5-hydroxy-3-methyl-1H-pyrazol-4-yl)benzonitrile], for which the half-inhibitory concentration (IC50) against full-length human PHD1 and against full-length human PHD2 was under 100 nM each time.

For the molecule `Cc1nn(-c2ccc(-c3ncco3)cn2)c(O)c1-c1ccc(C#N)cc1` [Compound 59, 4-(5-Hydroxy-3-methyl-1-(5-(oxazol-2-yl)pyridin-2-yl)-1H-pyrazol-4-yl)benzonitrile], the IC50 against full-length human PHD1 and against full-length human PHD2 was under 100 nM each time.

Take `Cc1nn(-c2ccc(-c3nccs3)cn2)c(O)c1-c1ccc(C#N)cc1` [Compound 60, 4-(5-Hydroxy-3-methyl-1-(5-(thiazol-2-yl)pyridin-2-yl)-1H-pyrazol-4-yl)benzonitrile]: the IC50 at full-length human PHD1 is under 100 nM; against full-length human PHD2, 100 to 1000 nM.

As to `Cc1nn(-c2ccc(-c3ncc(-c4ccccc4)s3)cn2)c(O)c1-c1ccc(C#N)cc1` [Compound 61, 4-(5-Hydroxy-3-methyl-1-(5-(5-phenylthiazol-2-yl)pyridin-2-yl)-1H-pyrazol-4-yl)benzonitrile], the IC50 is under 100 nM at full-length human PHD1 and over 10000 nM against full-length human PHD2.

With `Cc1nn(-c2ccc(-c3nc(-c4ccccc4)cs3)cn2)c(O)c1-c1ccc(C#N)cc1` [Compound 62, 4-(5-Hydroxy-3-methyl-1-(5-(4-phenylthiazol-2-yl)pyridin-2-yl)-1H-pyrazol-4-yl)benzonitrile], the values for the IC50 at full-length human PHD1 and against full-length human PHD2 were 100 to 1000 nM and over 10000 nM, respectively.

Consider `Cc1nn(-c2ccc(-n3cccn3)cn2)c(O)c1-c1ccc(C#N)cc1` [Compound 63, 4-(1-(5-(1H-pyrazol-1-yl)pyridin-2-yl)-5-hydroxy-3-methyl-1H-pyrazol-4-yl)benzonitrile], for which the IC50 against full-length human PHD1 is under 100 nM; against full-length human PHD2 it was 100 to 1000 nM.

Consider `Cc1nn(-c2ccc(-n3cc(-c4ccccc4)cn3)cn2)c(O)c1-c1ccc(C#N)cc1` [Compound 64, 4-(5-Hydroxy-3-methyl-1-(5-(4-phenyl-1H-pyrazol-1-yl)pyridin-2-yl)-1H-pyrazol-4-yl)benzonitrile], for which the concentration for half-maximal inhibition (IC50) against full-length human PHD1 was under 100 nM; on full-length human PHD2, 100 to 1000 nM.

For `Cc1nn(-c2ccc([S@@](=N)(=O)C3CC3)cn2)c(O)c1-c1ccc(Cl)cc1` [Compound 65, (S)-(6-(4-(4-chlorophenyl)-5-hydroxy-3-methyl-1H-pyrazol-1-yl)pyridin-3-yl)(cyclopropyl)(imino)-λ^6-sulfanone], the IC50 on full-length human PHD1 and against full-length human PHD2 was under 100 nM in each case.

(Values after patent US20230159489A1, “PHD INHIBITOR COMPOUNDS, COMPOSITIONS, AND USE” (Akebia Therapeutics, Inc., priority 2020, published 2023).)
